Source: ChEMBL document CHEMBL1909046, “DrugMatrix in vitro pharmacology data”

Key:
[1] = DRUGMATRIX: Atrial Natriuretic Factor (ANF) radioligand binding (ligand: [125I] ANF (rat)); format: cell membranes, Cavia porcellus, Dunkin-Hartley, Adrenal gland, Membrane; settings: Not Active = under 50% inhibition at 10 µM
[2] = DRUGMATRIX: Potassium Channel [KATP] radioligand binding (ligand: [3H] Glyburide); format: cell membranes, Membrane; settings: hit-t15; Not Active = under 50% inhibition at 10 µM
Adenosine receptor A2a = Adenosine receptor A2a (Homo sapiens, UniProt P29274); assay: DRUGMATRIX: Adenosine A2A radioligand binding (ligand: […]); format: cell membranes, HEK293, Membrane; settings: hek293; Not Active = under 50% inhibition at 10 µM
Chain of Adenosine receptor A2a (P29274 whole entry): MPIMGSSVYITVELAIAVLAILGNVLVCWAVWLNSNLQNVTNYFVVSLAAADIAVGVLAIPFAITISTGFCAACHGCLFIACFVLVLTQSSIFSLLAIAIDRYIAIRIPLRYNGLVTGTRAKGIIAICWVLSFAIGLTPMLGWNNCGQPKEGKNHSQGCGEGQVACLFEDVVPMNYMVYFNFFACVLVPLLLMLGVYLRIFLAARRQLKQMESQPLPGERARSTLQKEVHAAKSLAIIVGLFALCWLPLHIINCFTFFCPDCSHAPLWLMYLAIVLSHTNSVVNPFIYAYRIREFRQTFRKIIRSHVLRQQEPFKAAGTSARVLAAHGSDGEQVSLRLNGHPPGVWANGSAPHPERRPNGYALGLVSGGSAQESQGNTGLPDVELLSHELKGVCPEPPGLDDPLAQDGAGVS

[3] = molecular target: Protein phosphatase 3 catalytic subunit alpha (Homo sapiens, UniProt Q08209); design: species or system Escherichia coli;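 also: inhibition of calcineurin (PP2B) enzyme activity, measured with DiFMUP as the substrate; in other assays of this panel Not Active means under 50% inhibition at 10 µM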
[4] = molecular target: T1, Cysteinyl leukotriene receptor 1 (Homo sapiens, UniProt Q9Y271); format: cell membranes, CHO-K1, Membrane; settings: cho-k1; also: in other assays of this panel Not Active means under 50% inhibition at 10 µM
T1 sequence (Q9Y271 whole entry): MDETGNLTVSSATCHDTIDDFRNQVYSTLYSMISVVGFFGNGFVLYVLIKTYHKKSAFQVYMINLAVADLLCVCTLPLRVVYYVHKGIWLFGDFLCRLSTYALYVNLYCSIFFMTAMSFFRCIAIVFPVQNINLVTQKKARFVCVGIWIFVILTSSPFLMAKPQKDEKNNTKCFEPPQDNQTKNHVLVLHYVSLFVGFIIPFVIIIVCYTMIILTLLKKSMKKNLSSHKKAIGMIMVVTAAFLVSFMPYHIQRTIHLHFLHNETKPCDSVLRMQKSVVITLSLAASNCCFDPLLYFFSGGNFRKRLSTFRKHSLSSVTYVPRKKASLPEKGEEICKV

[5] = molecular target: T2, Alpha-2C adrenergic receptor (Homo sapiens, UniProt P18825); assay: DRUGMATRIX: Adrenergic Alpha-2C radioligand binding (ligand: [3H] MK-912); format: cell membranes, Sf9, Membrane; settings: sf9
T2 sequence (P18825 whole entry): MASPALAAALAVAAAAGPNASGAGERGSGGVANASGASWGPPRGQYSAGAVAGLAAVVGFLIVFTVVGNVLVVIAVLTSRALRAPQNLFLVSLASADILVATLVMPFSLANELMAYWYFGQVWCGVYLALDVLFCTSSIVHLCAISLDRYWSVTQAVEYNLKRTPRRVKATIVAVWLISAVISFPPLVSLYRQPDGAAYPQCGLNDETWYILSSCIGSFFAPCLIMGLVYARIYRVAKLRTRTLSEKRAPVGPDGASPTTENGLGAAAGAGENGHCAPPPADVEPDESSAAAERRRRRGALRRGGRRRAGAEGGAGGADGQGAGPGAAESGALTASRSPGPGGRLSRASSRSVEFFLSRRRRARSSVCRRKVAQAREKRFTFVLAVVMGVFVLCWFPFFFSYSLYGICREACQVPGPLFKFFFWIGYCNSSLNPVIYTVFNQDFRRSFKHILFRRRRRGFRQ

[6] = molecular target: Tyrosine-protein kinase Lck (Homo sapiens, UniProt P06239); assay: DRUGMATRIX: Protein Tyrosine Kinase, LCK enzyme inhibition (substrate: Poly(Glu:Tyr)); format: cell-based, Insect cells; settings: insect cells; Not Active = under 50% inhibition at 10 µM
Chain of Tyrosine-protein kinase Lck (P06239 whole entry): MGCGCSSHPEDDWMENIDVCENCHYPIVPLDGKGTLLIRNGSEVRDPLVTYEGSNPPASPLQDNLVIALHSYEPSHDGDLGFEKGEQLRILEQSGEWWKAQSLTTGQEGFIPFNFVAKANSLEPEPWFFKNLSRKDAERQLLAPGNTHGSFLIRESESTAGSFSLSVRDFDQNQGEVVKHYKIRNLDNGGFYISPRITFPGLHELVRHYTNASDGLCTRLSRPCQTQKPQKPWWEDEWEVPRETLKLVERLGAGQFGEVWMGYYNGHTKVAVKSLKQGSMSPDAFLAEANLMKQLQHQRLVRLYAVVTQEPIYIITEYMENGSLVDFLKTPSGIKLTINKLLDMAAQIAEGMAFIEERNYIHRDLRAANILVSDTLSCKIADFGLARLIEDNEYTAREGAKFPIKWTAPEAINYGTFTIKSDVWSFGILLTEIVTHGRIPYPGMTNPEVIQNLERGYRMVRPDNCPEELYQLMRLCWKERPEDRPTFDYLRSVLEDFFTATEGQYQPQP

[7] = molecular target: T3, C-X-C chemokine receptor type 1 (Homo sapiens, UniProt P25024); also: in other assays of this panel Not Active means under 50% inhibition at 10 µM
T3 sequence (P25024 whole entry): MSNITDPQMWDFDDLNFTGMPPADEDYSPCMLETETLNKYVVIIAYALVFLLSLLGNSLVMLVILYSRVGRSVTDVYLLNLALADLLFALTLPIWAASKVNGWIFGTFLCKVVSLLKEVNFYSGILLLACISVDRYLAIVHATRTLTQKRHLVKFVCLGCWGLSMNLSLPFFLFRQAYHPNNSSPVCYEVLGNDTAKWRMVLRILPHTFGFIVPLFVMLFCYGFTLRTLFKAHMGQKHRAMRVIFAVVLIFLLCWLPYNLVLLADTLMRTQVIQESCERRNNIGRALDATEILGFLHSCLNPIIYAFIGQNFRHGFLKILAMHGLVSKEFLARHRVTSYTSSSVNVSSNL

Caspase-1 = molecular target: T4, Caspase-1 (Homo sapiens, UniProt P29466); design: species or system Escherichia coli;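 also: Caspase-1 enzyme inhibition assay with a peptide substrate; in other assays of this panel Not Active means under 50% inhibition at 10 µM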
T4 sequence (P29466 whole entry): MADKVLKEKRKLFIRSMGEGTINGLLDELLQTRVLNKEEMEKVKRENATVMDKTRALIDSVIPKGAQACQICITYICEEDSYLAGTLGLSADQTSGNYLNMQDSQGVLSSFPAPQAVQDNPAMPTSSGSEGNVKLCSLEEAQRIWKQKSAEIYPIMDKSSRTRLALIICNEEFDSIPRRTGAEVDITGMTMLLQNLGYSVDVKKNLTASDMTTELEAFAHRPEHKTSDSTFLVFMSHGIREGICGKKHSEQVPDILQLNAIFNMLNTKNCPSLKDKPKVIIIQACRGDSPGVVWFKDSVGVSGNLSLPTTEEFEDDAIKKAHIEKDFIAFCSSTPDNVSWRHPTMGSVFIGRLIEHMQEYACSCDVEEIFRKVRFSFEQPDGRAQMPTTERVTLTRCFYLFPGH

Estrogen receptor beta = Estrogen receptor beta (Homo sapiens, UniProt Q92731); settings: sf9; also: in other assays of this panel Not Active means under 50% inhibition at 10 µM
Chain of Estrogen receptor beta (Q92731 whole entry): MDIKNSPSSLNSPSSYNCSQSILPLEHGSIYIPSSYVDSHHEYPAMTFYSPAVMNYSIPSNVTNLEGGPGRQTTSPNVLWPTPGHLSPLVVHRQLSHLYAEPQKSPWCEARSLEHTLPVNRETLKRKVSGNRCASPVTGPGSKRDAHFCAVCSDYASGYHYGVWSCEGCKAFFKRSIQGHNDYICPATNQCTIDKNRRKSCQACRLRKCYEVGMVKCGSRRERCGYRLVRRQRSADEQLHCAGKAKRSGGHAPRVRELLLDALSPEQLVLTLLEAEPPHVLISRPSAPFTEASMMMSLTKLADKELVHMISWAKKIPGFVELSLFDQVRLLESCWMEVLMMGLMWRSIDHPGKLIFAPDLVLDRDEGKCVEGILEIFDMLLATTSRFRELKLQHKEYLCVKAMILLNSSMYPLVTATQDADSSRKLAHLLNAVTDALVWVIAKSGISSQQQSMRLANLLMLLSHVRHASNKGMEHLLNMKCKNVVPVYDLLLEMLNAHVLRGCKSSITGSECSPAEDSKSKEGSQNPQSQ

Nitric oxide synthase 1 = Nitric oxide synthase 1 (Rattus norvegicus, UniProt P29476); format: tissue-based, Cerebellum; also: in other assays of this panel Not Active means under 50% inhibition at 10 µM
Chain of Nitric oxide synthase 1 (P29476 whole entry): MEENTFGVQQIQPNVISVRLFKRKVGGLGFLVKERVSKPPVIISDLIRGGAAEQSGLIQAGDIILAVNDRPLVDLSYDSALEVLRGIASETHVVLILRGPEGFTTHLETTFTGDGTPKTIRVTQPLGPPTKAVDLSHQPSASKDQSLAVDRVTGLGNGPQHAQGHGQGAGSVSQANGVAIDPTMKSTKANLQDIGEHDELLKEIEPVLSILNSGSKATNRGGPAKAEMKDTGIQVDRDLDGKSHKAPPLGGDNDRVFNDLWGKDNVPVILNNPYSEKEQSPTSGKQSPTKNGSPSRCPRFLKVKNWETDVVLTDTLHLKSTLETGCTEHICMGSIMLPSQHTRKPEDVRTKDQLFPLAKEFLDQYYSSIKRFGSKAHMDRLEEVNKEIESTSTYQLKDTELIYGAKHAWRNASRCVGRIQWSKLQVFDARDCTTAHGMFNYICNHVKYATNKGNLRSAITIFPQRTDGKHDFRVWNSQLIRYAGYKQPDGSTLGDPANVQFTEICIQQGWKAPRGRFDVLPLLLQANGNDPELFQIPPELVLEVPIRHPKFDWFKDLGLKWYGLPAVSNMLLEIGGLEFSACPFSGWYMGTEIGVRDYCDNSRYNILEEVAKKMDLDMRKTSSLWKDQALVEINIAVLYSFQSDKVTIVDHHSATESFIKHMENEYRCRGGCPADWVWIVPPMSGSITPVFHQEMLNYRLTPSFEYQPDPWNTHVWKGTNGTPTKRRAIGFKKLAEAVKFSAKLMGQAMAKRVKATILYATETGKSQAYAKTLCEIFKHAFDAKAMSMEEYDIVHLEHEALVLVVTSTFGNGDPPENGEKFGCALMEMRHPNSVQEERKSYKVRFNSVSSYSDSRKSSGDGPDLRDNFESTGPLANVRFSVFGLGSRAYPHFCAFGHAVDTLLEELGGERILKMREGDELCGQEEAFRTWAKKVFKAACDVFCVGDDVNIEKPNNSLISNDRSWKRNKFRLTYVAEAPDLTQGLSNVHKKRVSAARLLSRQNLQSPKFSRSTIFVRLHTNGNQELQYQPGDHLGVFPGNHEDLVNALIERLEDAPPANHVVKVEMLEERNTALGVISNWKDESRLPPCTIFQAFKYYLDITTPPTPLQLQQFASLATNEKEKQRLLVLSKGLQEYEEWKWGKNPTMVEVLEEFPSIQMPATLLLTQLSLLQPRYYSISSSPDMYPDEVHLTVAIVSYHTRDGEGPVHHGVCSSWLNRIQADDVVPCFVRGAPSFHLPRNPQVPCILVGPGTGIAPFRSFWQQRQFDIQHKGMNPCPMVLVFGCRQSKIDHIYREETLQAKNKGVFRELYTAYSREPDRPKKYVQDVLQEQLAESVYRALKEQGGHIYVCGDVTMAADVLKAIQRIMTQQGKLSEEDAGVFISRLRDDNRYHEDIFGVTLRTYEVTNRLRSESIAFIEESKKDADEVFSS

[8] = molecular target: 5-hydroxytryptamine receptor 4 (Cavia porcellus, UniProt O70528); format: cell membranes, Dunkin-Hartley, Striatum, Membrane; also: in other assays of this panel Not Active means under 50% inhibition at 10 µM
Chain of 5-hydroxytryptamine receptor 4 (O70528 whole entry): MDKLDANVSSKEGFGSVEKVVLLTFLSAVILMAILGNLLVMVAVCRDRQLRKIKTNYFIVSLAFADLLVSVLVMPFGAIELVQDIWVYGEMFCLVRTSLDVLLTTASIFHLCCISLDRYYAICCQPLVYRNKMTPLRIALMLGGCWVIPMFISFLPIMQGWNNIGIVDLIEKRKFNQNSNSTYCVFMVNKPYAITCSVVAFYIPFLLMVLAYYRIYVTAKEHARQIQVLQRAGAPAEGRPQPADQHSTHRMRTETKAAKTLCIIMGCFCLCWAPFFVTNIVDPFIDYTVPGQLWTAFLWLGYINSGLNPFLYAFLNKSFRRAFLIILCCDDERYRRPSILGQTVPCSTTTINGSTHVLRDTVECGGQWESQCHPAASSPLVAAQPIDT

[9] = DRUGMATRIX: Phosphodiesterase PDE3 enzyme inhibition (substrate: [3H]cAMP + cAMP); format: tissue-based, Homo sapiens; settings: platelet; Not Active = under 50% inhibition at 10 µM
[10] = DRUGMATRIX: Leukotriene, BLT (LTB4) radioligand binding (ligand: [3H]LTB4); format: cell membranes, Membrane; settings: u-937; Not Active = under 50% inhibition at 10 µM

COc1ccc2cc(CC(=O)O)ccc2c1
Not Active: IC50 [1] | Ki [1] | IC50 [2] | Ki [2] | IC50 (Adenosine receptor A2a) | IC50 [3] | IC50 [4] | IC50 [5] | IC50 [6] | IC50 [7] | IC50 (Caspase-1) | IC50 (Estrogen receptor beta) | IC50 (Nitric oxide synthase 1) | IC50 [8] | IC50 [9] | Ki [9] | IC50 [10] | Ki [10]

CC(C)NC[C@H](O)COc1cccc2[nH]ccc12
Not Active: IC50 [1] | Ki [1] | IC50 [2] | Ki [2] | IC50 (Adenosine receptor A2a) | IC50 [3] | IC50 [4] | IC50 [5] | IC50 [6] | IC50 [7] | IC50 (Caspase-1) | IC50 (Estrogen receptor beta) | IC50 (Nitric oxide synthase 1) | IC50 [8] | IC50 [9] | Ki [9] | IC50 [10] | Ki [10]

c1ccc2c(c1)cc1ccc3cccc4ccc2c1c34
Not Active: IC50 [1] | Ki [1] | IC50 [2] | Ki [2] | IC50 (Adenosine receptor A2a) | IC50 [3] | IC50 [4] | IC50 [5] | IC50 [6] | IC50 [7] | IC50 (Caspase-1) | IC50 (Estrogen receptor beta) | IC50 (Nitric oxide synthase 1) | IC50 [8] | IC50 [9] | Ki [9] | IC50 [10] | Ki [10]

C=C1C(=O)O[C@@H]2C3O[C@]3(C)CC/C=C(\C)CC[C@@H]12 (stereo not given in full)
Not Active: IC50 [1] | Ki [1] | IC50 [2] | Ki [2] | IC50 (Adenosine receptor A2a) | IC50 [3] | IC50 [4] | IC50 [5] | IC50 [6] | IC50 [7] | IC50 (Caspase-1) | IC50 (Estrogen receptor beta) | IC50 (Nitric oxide synthase 1) | IC50 [8] | IC50 [9] | Ki [9] | IC50 [10] | Ki [10]

CC(/C=C1\SC(=S)N(CC(=O)O)C1=O)=C\c1ccccc1
Not Active: IC50 [1] | Ki [1] | IC50 [2] | Ki [2] | IC50 (Adenosine receptor A2a) | IC50 [3] | IC50 [4] | IC50 [5] | IC50 [6] | IC50 [7] | IC50 (Caspase-1) | IC50 (Estrogen receptor beta) | IC50 (Nitric oxide synthase 1) | IC50 [8] | IC50 [9] | Ki [9] | IC50 [10] | Ki [10]

CCCCCCCCCc1ccc(O)cc1 [4-NONYLPHENOL]
Not Active: IC50 [1] | Ki [1] | IC50 [2] | Ki [2] | IC50 (Adenosine receptor A2a) | IC50 [3] | IC50 [4] | IC50 [5] | IC50 [6] | IC50 [7] | IC50 (Caspase-1) | IC50 (Estrogen receptor beta) | IC50 (Nitric oxide synthase 1) | IC50 [8] | IC50 [9] | Ki [9] | IC50 [10] | Ki [10]

Cc1[nH]cnc1CN1CCc2c(c3ccccc3n2C)C1=O [ALOSETRON]
Not Active: IC50 [1] | Ki [1] | IC50 [2] | Ki [2] | IC50 (Adenosine receptor A2a) | IC50 [3] | IC50 [4] | IC50 [5] | IC50 [6] | IC50 [7] | IC50 (Caspase-1) | IC50 (Estrogen receptor beta) | IC50 (Nitric oxide synthase 1) | IC50 [8] | IC50 [9] | Ki [9] | IC50 [10] | Ki [10]

O=c1cc(-c2ccccc2)oc2c1ccc1ccccc12 [ALPHA-NAPHTHOFLAVONE]
Not Active: IC50 [1] | Ki [1] | IC50 [2] | Ki [2] | IC50 (Adenosine receptor A2a) | IC50 [3] | IC50 [4] | IC50 [5] | IC50 [6] | IC50 [7] | IC50 (Caspase-1) | IC50 (Estrogen receptor beta) | IC50 (Nitric oxide synthase 1) | IC50 [8] | IC50 [9] | Ki [9] | IC50 [10] | Ki [10]

CC1(C)S[C@@H]2[C@H](NC(=O)[C@H](N)c3ccc(O)cc3)C(=O)N2[C@H]1C(=O)O [AMOXICILLIN]
Not Active: IC50 [1] | Ki [1] | IC50 (Adenosine receptor A2a) | IC50 [3] | IC50 [4] | IC50 [5] | IC50 [6] | IC50 [7] | IC50 (Caspase-1) | IC50 (Estrogen receptor beta) | IC50 (Nitric oxide synthase 1) | IC50 [8] | IC50 [9] | Ki [9] | IC50 [10] | Ki [10]
